Measurements from PubChem BioAssay AID1996.
≈ marks a conversion by molar mass, not a printed value. Where “and” joins values, the source holds several entries; their conditions need not be identical. Equal values may be shown once.

Conditions: buffer; pH 7.4; 200.0 µM

SMILES	solubility kinetic
O=C(Nc1cccc2ccccc12)c1cccc([N+](=O)[O-])c1	1.4 µg/mL (≈ 4.79 µM)
Cc1ccccc1NC(=O)CSc1nc2ccccc2c(=O)n1C	3 µg/mL (≈ 8.84 µM)
Cc1ccc(OCCCN2CCOCC2)cc1	26.7 µg/mL (≈ 113 µM)
O=[N+]([O-])c1ccc(SCCc2ccccn2)cc1	30.6 µg/mL (≈ 118 µM)
Cc1onc(-c2ccccc2Cl)c1C(=O)NCc1ccc(F)cc1	45.3 µg/mL (≈ 131 µM)
COc1ccccc1OCC(=O)Nc1sc2c(c1C(N)=O)CCC2	4.6 µg/mL (≈ 13.3 µM)
CCOC(=O)c1sc(Nc2ccc(Br)cc2)nc1C	1.2 µg/mL (≈ 3.52 µM)
CCc1nnc(NC(=O)CSc2nc(C)cs2)s1	> 45.1 µg/mL
CSc1ncccc1C(=O)OCC(=O)C(C)(C)C	39.6 µg/mL (≈ 148 µM)
CCc1ccc(N2CN(CCc3ccccc3)CNC2=S)cc1	1.6 µg/mL (≈ 4.92 µM)
Cc1ccc(N=C2NC(=O)CS2)cc1C	32.7 µg/mL (≈ 148 µM)
COc1cccc(CN(C)C(=S)Nc2cccc(C)c2)c1	40.4 µg/mL (≈ 134 µM)
O=C(CNC(=O)c1ccccc1F)N/N=C/c1cccs1	> 45.8 µg/mL
O=C(NCC(=O)N1CCOCC1)c1ccccc1	> 37.2 µg/mL
O=C(CN1C(=O)NC(CCc2ccccc2)C1=O)Nc1ccccc1C(F)(F)F (stereo unspecified)	5.2 µg/mL (≈ 12.8 µM)
Cc1cccc(NC(=S)NC(=O)Cc2ccccc2)c1C	1.1 µg/mL (≈ 3.69 µM)
CC(Sc1nnc(-c2ccco2)n1C)C(=O)NC1CCCC1 (stereo unspecified)	> 48.1 µg/mL
COc1ccc(C(=O)NCCCSc2ccccc2)cc1F	2.5 µg/mL (≈ 7.83 µM)
CCCCOc1ccc(C(=O)NCCC(=O)NCCCC(=O)OCC)cc1	> 56.8 µg/mL
N#CCCN(C(=O)COC(=O)c1cc(=O)[nH]c2ccccc12)c1ccccc1	> 56.3 µg/mL
O=[N+]([O-])c1cccc(CNC2CCCCCC2)c1	24.6 µg/mL (≈ 99.1 µM)

SMILES	solubility kinetic
COc1ccc(NC(=S)NC(C)c2ccncc2)cc1OC (stereo unspecified)	46.7 µg/mL (≈ 147 µM)
CCOC(=O)c1c(O)c2ccccc2n(CC)c1=O	> 39.2 µg/mL
Cc1ccc(C(=O)OCC(=O)NC(C)c2ccccc2)s1 (stereo unspecified)	16.1 µg/mL (≈ 53.1 µM)
COC(=O)c1sc(NC(=O)c2ccco2)c(C#N)c1C	3.7 µg/mL (≈ 12.7 µM)
COc1ccc(SCCC(=O)NCc2ccncc2)cc1	> 45.4 µg/mL
CC(C)(C#CC(O)(c1ccccc1)c1ccccc1)N1CCCCC1	46.3 µg/mL (≈ 139 µM)
COc1ccc(OCC(O)CN2CCCC2)cc1 (stereo unspecified)	30.7 µg/mL (≈ 122 µM)
Cn1c(SCC(=O)NC2CCCCC2)nnc1-c1ccccc1F	> 52.3 µg/mL
Cc1[nH]c(=O)[nH]c(=O)c1S(=O)(=O)Nc1ccc(S(N)(=O)=O)cc1	48.8 µg/mL (≈ 135 µM)
CCOC(=O)N1CCc2c(sc3ncn(Cc4ccc(F)cc4)c(=O)c23)C1	20.8 µg/mL (≈ 53.7 µM)
Cc1cc(C)nc(NC(=S)NC(=O)c2ccccc2F)n1	8.1 µg/mL (≈ 26.6 µM)
O=C(CNC(=O)c1ccc(Cl)cc1Cl)OCCOc1ccccc1F	51.2 µg/mL (≈ 133 µM)
CC1CCCC1/C(=N/O)c1ccccc1 (stereo unspecified)	16.9 µg/mL (≈ 83.1 µM)
COc1ccc(O)c(/C=N/N2CCOCC2)c1	> 35.4 µg/mL
COc1ccc2cc(C(=O)N3CCN(c4cccc(C)c4C)CC3)[nH]c2c1	1.2 µg/mL (≈ 3.3 µM)
COc1ccc(Cl)cc1S(=O)(=O)NCCCn1ccnc1	48.6 µg/mL (≈ 147 µM)
Nn1c(SCC(=O)Nc2ccc3c(c2)OCO3)nncc1=O	> 48.2 µg/mL
O=C(CSCc1ccc(Br)cc1)N1CCCC1	> 47.1 µg/mL
N/C(CC1CC1(Cl)Cl)=N\OC(=O)c1ccccc1 (stereo unspecified)	> 43.1 µg/mL
CCCn1c(C)cc(C=O)c1C	16.3 µg/mL (≈ 98.6 µM)
O=C(NC(=S)NCc1ccco1)c1ccccc1[N+](=O)[O-]	8.7 µg/mL (≈ 28.5 µM)

SMILES	solubility kinetic
COc1cc(N)c(Cl)cc1C(=O)OCC(=O)N1c2ccccc2NC(=O)C1(C)C	5.5 µg/mL (≈ 13.2 µM)
CC(=O)Oc1ccc(-c2cccc(C(=O)N3CCCCC3)c2)cc1	40.8 µg/mL (≈ 126 µM)
COc1ccc(CCC(C)NCc2cc(OC)cc(OC)c2)cc1 (stereo unspecified)	38.7 µg/mL (≈ 117 µM)
Cc1cc(C)cc(OCC(=O)OCC(=O)NC2CCCC2)c1	38.5 µg/mL (≈ 126 µM)
CN(C(=O)COC(=O)c1cc2ccccc2cc1O)c1ccccc1	3.4 µg/mL (≈ 10.1 µM)
CCOC(=O)C1(CCOC)CCN(C(=O)c2sccc2C)CC1	> 50.9 µg/mL
Cc1ccc(C)n1-c1ccccc1N1CCCCC1	6.4 µg/mL (≈ 25.2 µM)
O=C(Cc1ccccc1)Nc1cc2c(cc1Cl)OCCCO2	5.5 µg/mL (≈ 17.3 µM)
O=C1CCCc2nc(N3CCN(C(=O)c4ccco4)CC3)ncc21	> 49 µg/mL
O=C(COC(=O)CNC(=O)C1CCCCC1)Nc1ccc(F)c([N+](=O)[O-])c1	> 57.2 µg/mL
CCOc1nc(-c2ccccc2)ncc1Oc1ccccc1	< 0.3 µg/mL
CC(C)(C)NC(=O)NC(=O)CN1CCc2ccccc21	27.5 µg/mL (≈ 99.9 µM)
O=c1c2ccccc2[se]n1-c1ccccc1	13.6 µg/mL and 6.6 µg/mL
CCC1=C([N+](=O)[O-])C(c2ccc3c(c2)OCO3)NC(=O)N1 (stereo unspecified)	> 43.7 µg/mL
CC(C)[C@H](NC(=O)C1CCCC1)c1nc2ccccc2[nH]1	9.9 µg/mL (≈ 34.7 µM)
COc1cccc(NC(=O)/C=C/c2ccco2)c1	> 36.5 µg/mL
CC1(C)C2CCC1(C)C([NH2+]c1ccccc1)C2.[Cl-] (stereo unspecified)	< 0.6 µg/mL
Cc1sc2nc(SCC(=O)Nc3cccc(S(N)(=O)=O)c3)[nH]c(=O)c2c1C	6 µg/mL (≈ 14.1 µM)
CCOC(=O)Cc1csc(NC(=O)Cc2ccc(C)cc2)n1	45.2 µg/mL (≈ 142 µM)
